Reference: PMC6267282, “Targeting the DNA Repair Endonuclease ERCC1-XPF with Green Tea Polyphenol Epigallocatechin-3-Gallate (EGCG) and Its Prodrug to Enhance Cisplatin Efficacy in Human Cancer Cells” (Nutrients, 2018)

Target: T1, ERCC1/XPF (XPF endonuclease) (Homo sapiens, UniProt Q92889)
T1 construct: gene ERCC4; with ERCC1
Experiment: fluorescence-based DNA incision assay with purified ERCC1/XPF
Assay type: biochemical

T1 sequence (Q92889 whole entry): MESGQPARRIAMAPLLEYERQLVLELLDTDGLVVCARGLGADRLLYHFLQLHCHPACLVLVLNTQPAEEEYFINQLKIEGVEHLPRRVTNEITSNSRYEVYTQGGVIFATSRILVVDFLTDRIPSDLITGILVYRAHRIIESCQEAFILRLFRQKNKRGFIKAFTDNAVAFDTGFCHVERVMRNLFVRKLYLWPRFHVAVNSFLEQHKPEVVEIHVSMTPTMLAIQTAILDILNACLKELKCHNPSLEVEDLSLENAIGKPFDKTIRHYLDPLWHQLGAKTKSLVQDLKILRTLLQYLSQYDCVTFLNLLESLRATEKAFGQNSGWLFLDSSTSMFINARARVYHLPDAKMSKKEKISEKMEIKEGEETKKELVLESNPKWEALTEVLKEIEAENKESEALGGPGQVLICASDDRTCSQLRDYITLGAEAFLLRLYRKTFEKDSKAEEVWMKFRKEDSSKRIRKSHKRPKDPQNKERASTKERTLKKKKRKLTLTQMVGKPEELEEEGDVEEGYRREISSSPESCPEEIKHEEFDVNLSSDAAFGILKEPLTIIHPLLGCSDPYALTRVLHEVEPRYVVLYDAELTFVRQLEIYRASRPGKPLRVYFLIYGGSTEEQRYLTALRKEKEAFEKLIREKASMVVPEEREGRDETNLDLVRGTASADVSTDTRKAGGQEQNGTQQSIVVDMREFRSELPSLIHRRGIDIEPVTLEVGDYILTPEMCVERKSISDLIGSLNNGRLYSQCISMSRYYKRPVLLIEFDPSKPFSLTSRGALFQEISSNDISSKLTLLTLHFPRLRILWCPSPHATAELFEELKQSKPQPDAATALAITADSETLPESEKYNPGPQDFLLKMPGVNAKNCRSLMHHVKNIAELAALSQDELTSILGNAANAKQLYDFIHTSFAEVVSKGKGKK
T1 sequence (P07992 whole entry, further chain): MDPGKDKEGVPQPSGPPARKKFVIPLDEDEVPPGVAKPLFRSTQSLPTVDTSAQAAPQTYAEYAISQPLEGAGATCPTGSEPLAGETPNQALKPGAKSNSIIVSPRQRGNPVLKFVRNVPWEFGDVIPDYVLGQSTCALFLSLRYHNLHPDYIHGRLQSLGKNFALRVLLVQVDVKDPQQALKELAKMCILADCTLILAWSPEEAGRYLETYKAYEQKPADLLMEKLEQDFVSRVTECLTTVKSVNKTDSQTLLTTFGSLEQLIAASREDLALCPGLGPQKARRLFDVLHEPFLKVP

Work on `O=c1c(O)c(-c2cc(O)c(O)c(O)c2)oc2cc(O)cc(O)c12` [Myricetin] yielded an IC50 of roughly 150 nM.
